# Read-outs that look alike come from different tables or passages of the source.
# Legend:
# [1] = test system: SDF-1α induced Ca flux in SUP-T1 cells; assay: Inhibition of SDF-1α induced Ca flux in SUP-T1 cells (FLIPR); type: cell-based; conditions: Homo sapiens, read-out: inhibited SDF-1α induced Ca flux; for inhibition at 20 µg/mL: at 20 μg/mL
# Description: Loading dye: Fluo-3, AM (Molecular Probes F-1241) is dissolved in anhydrous DMSO and stored frozen in aliquots. To increase the solubility of the dye in the loading medium, 10% (w/v) pluronic acid (Molecular Probes F-127) is added to the Fluo-3 stock solution immediately before use.
# HBSS+20 mM Hepes buffer+0.2% BSA, pH 7.4. HBSS 10× [(w/o phenol red and sodium bicarbonate (Gibco 14 065-049)]; Hepes buffer 1M (Gibco 15 630-056), BSA (Sigma A3675). The flux buffer is vacuum-filtered and stored refrigerated for a maximum of 5 days. Before use in the experiment, the buffer is warmed at 37° C. in a waterbath.
# The test compounds were diluted in flux buffer and added to 4 wells of a black microplate (4 parallel measurements per compound).
# The chemokines are diluted in flux buffer to concentrations that are 4-fold higher than the desired concentrations required for stimulation of the cells (i.e. 2.5 nM for SDF-1α and 0.6 nM for RANTES). The chemokines were added to untreated 96-well Sero well compound plates (International Medical, Sterilin code 611F96). In the negative control well's (baseline monitoring), flux buffer is added instead of chemokine. As a positive control to check for dye loading efficiency, 20 μM digitonin (final concentration) was also included. The agonist plate was incubated in the FLIPR (37° C.) for 15-30 min.
# SUP-T1 cells were centrifuged at room temperature (RT) and re-suspended in loading medium (RPMI-1640 containing 2% FBS and 4 μM Fluo-3, AM). The cells were incubate at room temperature for 45 min. then washed twice in flux buffer then incubated in flux buffer at room temperature for 10 min. The cells were centrifuged and re-suspended in flux buffer at a density of 3×10^6 cells per mL. […] The microplate is then gently centrifuged at room temperature. Homogeneous spreading of the cells on the bottom of the microplate wells was then confirmed with a microscope and the microplate was incubated in the FLIPR (37° C.) for 10 min. prior to testing.
# The FLIPR settings (camera exposure time and laser power) are adjusted to obtain initial fluorescence values between 8,000 and 10,000 units. After monitoring a 20 second-baseline, the agonist (chemokine) (50 μL) is added by automatic pipettor with black pipette tips. Fluorescence is measured simultaneously in all wells of the microplate every 2 seconds (first 2 min) and thereafter every 6 seconds (additional 2 min). The average ca-flux measured in each set of 4 identical wells (one test compound) was calculated by the FLIPR software.
# The compounds of the current invention were tested for inhibition of SDF-1α induced Ca flux in SUP-T1 cells using the method described above.
# HIV-1 NL4.3 or IIIB = assay: Inhibition of HIV-1 (NL4.3 or IIIB) replication in MT-4 cells (MTT); type: cell-based; conditions: Human immunodeficiency virus 1, IIIB
# Description: Compounds were tested for their ability to inhibit HIV-1 replication in MT-4 cells or PBMC's (peripheral blood mononucleocytes) using published procedures (for example, see: Labrosse et al. J. Virol. 1998, 6381-6388; Simmons et al. J. Virol. 1998, 8453-8457; Donzella et al. Nature Medicine 1998, 72-77; Schols et al. J. Exp. Med. 1997, 1383-1388; De Clercq et al. Antiviral Res. 1997, 147-156; and Bridger et al. U.S. patent application Ser. No. 09/111,895). In addition to the above references, experimental methods for performing anti-viral assays can also be found in: Bridger et al. J. Med. Chem. 1995, 38, 366-378; Bridger et al. J. Med. Chem. 1996, 39, 109-119; Bridger et al. U.S. Pat. No. 5,698,546; Bridger et al. U.S. Pat. No. 5,583,131; Bridger et al. U.S. Pat. No. 5,817,807; De Clercq et al. Antimicrob. Agents and Chemother. 1994, 38, 668-674.
# 1. The HIV-1 strains NL4.3 and IIIB are T-tropic strains that exclusively use CXCR4 as the co-receptor for entry into cells. MT-4 Cells express CXCR4 but not CCR5.
# Inhibition of HIV-1 NL4.3 (or IIIB) replication assays were performed as previously described (Bridger et al. J. Med. Chem. 1999, 42, 3971-3981; De Clercq et al. Proc. Natl. Acad. Sci, 1992, 89, 5286-5290; De Clercq et al. Antimicrob. Agents Chemother. 1994, 38, 668-674; Bridger et al. J. Med. Chem. 1995, 38, 366-378). Anti-HIV activity and cytotoxicity measurements were carried out in parallel. They were based on the viability of MT-4 cells that had been infected with HIV in the presence of various concentrations of the test compounds. After the MT-4 cells were allowed to proliferate for 5 days, the number of viable cells was quantified by a tetrazolium-based calorimetric 3-(4,5-dimethylthiazol-2-yl)-2,5-diphenyltetrazolium bromide (MTT) procedure in 96-well microtrays. In all of these assays, viral input (viral multiplicity of infection, MOI) was 0.01, or 100 times the 50% cell culture infective dose (CCID50). The EC50 was defined as the concentration required to protect 50% of the virus-infected cells against viral cytopathicity.
# [2] = MT4, read-out: EC50, inhibition of HIV-1 NLA.3 or IIIB replication
SMILES,inhibition at 20 µg/mL [1] [%],inhibition at 20 µM [1] [%],other results
"c1ccc(CNCc2ccc(CNc3cccc4c3NCCC4)cc2)nc1 [Example 9, N-(2-pyridinylmethyl)-N′-(1,2,3,4-tetrahydro-8-quinolinyl)-1,4-benzenedimethanamine]",> 20,,
"c1ccc(CNCc2ccc(CN(Cc3ncc[nH]3)C3CCCc4cccnc43)cc2)nc1 (centres unmarked) [Example 15, N-(2-pyridinylmethyl)-N′-(1H-imidazol-2-ylmethyl)-N′-(5,6,7,8-tetrahydro-8-quinolinyl)-1,4-benzenedimethanamine]",> 20,,"EC50 (HIV-1 NL4.3 or IIIB; MT4, read-out: EC50, inhibition of HIV-1 NL4.3 or IIIB replication): < 20 µg/mL"
"c1ccc(CNCc2ccc(CN(Cc3ccc[nH]3)C3CCCc4cccnc43)cc2)nc1 (centres unmarked) [Example 26, N-(2-pyridinylmethyl)-N′-[2-pyrrolylmethyl]-N′-(5,6,7,8-tetrahydro-8-quinolinyl)-1,4-benzenedimethanamine]",> 20,,
"NCCN(Cc1ccc(CNCc2ccccn2)cc1)C1CCCc2cccnc21 (centres unmarked) [Example 31, N-(2-pyridinylmethyl)-N′-(2-aminoethyl)-N′-(5,6,7,8-tetrahydro-8-quinolinyl)-1,4-benzenedimethanamine]",> 20,,
"c1ccc(CN(Cc2ccc(CNCc3ccccn3)cc2)C2CCCc3cccnc32)cc1 (centres unmarked) [Example 60, N-(2-pyridinylmethyl)-N′-(phenylmethyl)-N′-(5,6,7,8-tetrahydro-8-quinolinyl)-1,4-benzenedimethanamine]",> 20,,
"NCC(=O)N(Cc1ccc(CNCc2ccccn2)cc1)C1CCCc2cccnc21 (centres unmarked) [Example 72, N-[[4-[[(2-pyridinylmethyl)amino]methyl]phenyl]methyl]-N-(5,6,7,8-tetrahydro-8-quinolinyl)-glycinamide]",> 20,,
"O=C(c1cnccn1)N(Cc1ccc(CNCc2ccccn2)cc1)C1CCCc2cccnc21 (centres unmarked) [Example 75, N-[[4-[[(2-pyridinylmethyl)amino]methyl]phenyl]methyl]-N-(5,6,7,8-tetrahydro-8-quinolinyl)-pyrazinamide]",> 20,,
"O=C(c1ccccn1)N(Cc1ccc(CNCc2ccccn2)cc1)C1CCCc2cccnc21 (centres unmarked) [Example 79, N-[[4-[[(2-pyridinylmethyl)amino]methyl]phenyl]methyl]-N-(5,6,7,8-tetrahydro-8-quinolinyl)-picolinamide]",> 20,,
"O=C(NC1CCCCc2cccnc21)c1ccc(CNCc2ccccn2)cc1 (centres unmarked) [Example 82, N-(6,7,8,9-tetrahydro-5H-cyclohepta[b]pyridin-9-yl)-4-[[(2-pyridinylmethyl)amino]methyl]benzamide]",> 20,,
"Cc1onc(-c2ccccc2Cl)c1C(=O)N1CCC(N(Cc2cccc(CNCc3ccccn3)c2)Cc2ccccn2)CC1 [Example 98, N,N′-bis(2-pyridinylmethyl)-N-[1-[3-(2-chlorophenyl)-5-methyl-isoxazol-4-oyl]-4-piperidinyl]-1,3-benzenedimethanamine]",,> 20,
"O=C(NN1CCC(N(Cc2ccc(CNCc3ccccn3)cc2)Cc2ccccn2)CC1)c1cccnc1 [Example 131, N-[1-(3-pyridinecarboxamido)-4-piperidinyl]-N,N′-bis(2-pyridinylmethyl)-1,4-benzenedimethanamine]",,> 20,
"Cc1onc(-c2ccccc2Cl)c1C(=O)NN1CCC(N(Cc2ccc(CNCc3ccccn3)cc2)Cc2ccccn2)CC1 [Example 135, N-[1-[3-(2-chlorophenyl)-5-methyl-isoxazol-4-carboxamido]-4-piperidinyl]-N,N′-bis(2-pyridinylmethyl)-1,4-benzenedimethanamine]",,> 20,
"c1ccc(CN2CCC(N(Cc3ccc(CNCc4ccccn4)cc3)Cc3ccccn3)C2)cc1 (centres unmarked) [Example 145, N-[1-(benzyl)-3-pyrrolidinyl]-N,N′-bis(2-pyridinylmethyl)-1,4-benzenedimethanamine]",,> 20,
"CC(C)N1CCC(N(Cc2ccc(CNCc3ccccn3)cc2)Cc2ccccn2)CC1 [Example 147, N-[1-(iso-propyl)-4-piperidinyl]-N,N′-bis(2-pyridinylmethyl)-1,4-benzenedimethanamine]",,> 20,
"Oc1cccc2ccc(CN(Cc3ccc(CNCc4ccccn4)cc3)C3CCCCc4cccnc43)nc12 (centres unmarked) [Example 157, N-[(8-hydroxy)-2-quinolylmethyl]-N′-(2-pyridinylmethyl)-N-(6,7,8,9-tetrahydro-5H-cyclohepta[b]pyridin-9-yl)-1,4-benzenedimethanamine]",,,EC50 (HIV-1 NL4.3 or IIIB; [2]): < 20 µM
"c1ccc(CNCc2ccc(CN(Cc3ccc4ccccc4n3)C3CCCCc4cccnc43)cc2)nc1 (centres unmarked) [Example 158, N-(2-quinolylmethyl)-N′-(2-pyridinylmethyl)-N-(6,7,8,9-tetrahydro-5H-cyclohepta[b]pyridin-9-yl)-1,4-benzenedimethanamine]",,,EC50 (HIV-1 NL4.3 or IIIB; [2]): < 20 µM
"CCCCN1CCC(N(CCc2ccccn2)Cc2cccc(CNCc3ccccn3)c2)CC1 [Example 177, N-[1-butyl-4-piperidinyl]-N-[2-(2-pyridinyl)ethyl]-N′-(2-pyridinylmethyl)-1,3-benzenedimethanamine]",,> 20,
"O=C(c1ccccc1)N1CCC(N(CCc2ccccn2)Cc2cccc(CNCc3ccccn3)c2)CC1 [Example 178, N-[1-benzoyl-4-piperidinyl]-N-[2-(2-pyridinyl)ethyl]-N′-(2-pyridinylmethyl)-1,3-benzenedimethanamine]",,> 20,
"Cn1cc(CN(CCc2ccccn2)Cc2cccc(CNCc3ccccn3)c2)c2ccccc21 [Example 180, N-[(1-methyl)benzo[b]pyrrol-3-ylmethyl]-N-[2-(2-pyridinyl)ethyl]-N′-(2-pyridinylmethyl)-1,3-benzenedimethanamine]",,> 20,
"c1ccc(CN2CCC(N(CCc3ccccn3)Cc3ccc(CNCc4ccccn4)cc3)CC2)cc1 [Example 182, N-[1-(benzyl)-4-piperidinyl]-N-[2-(2-pyridinyl)ethyl]-N′-(2-pyridinylmethyl)-1,4-benzenedimethanamine]",,> 20,
"Cn1c(CN(CCc2ccccn2)Cc2ccc(CNCc3ccccn3)cc2)nc2ccccc21 [Example 183, N-[1-methylbenzimidazol-2-ylmethyl]-N-[2-(2-pyridinyl)ethyl]-N′-(2-pyridinylmethyl)-1,4-benzenedimethanamine]",,> 20,
"c1ccc(-c2[nH]c3ccccc3c2CN(CCc2ccccn2)Cc2ccc(CNCc3ccccn3)cc2)cc1 [Example 184, N-[(2-phenyl)benzo[b]pyrrol-3-ylmethyl]-N-[2-(2-pyridinyl)ethyl]-N′-(2-pyridinylmethyl)-1,4-benzenedimethanamine]",,> 20,

# Source: US6750348B1, “Chemokine receptor binding heterocyclic compounds” (AnorMED, Inc., priority 1999, dated 2004)
